Assays:
[1] = target: T1, AR (Homo sapiens, UniProt P10275, T878A); assay: Western blot of AR protein in C4-2 cells; format: cell-based; settings: 1 μM to 10 μM, 24 h, relative to GAPDH, FIG. 4A
T1 construct: endogenous in cells; host or cells: C4-2 cells
T1 sequence (P10275 1-920 T878A): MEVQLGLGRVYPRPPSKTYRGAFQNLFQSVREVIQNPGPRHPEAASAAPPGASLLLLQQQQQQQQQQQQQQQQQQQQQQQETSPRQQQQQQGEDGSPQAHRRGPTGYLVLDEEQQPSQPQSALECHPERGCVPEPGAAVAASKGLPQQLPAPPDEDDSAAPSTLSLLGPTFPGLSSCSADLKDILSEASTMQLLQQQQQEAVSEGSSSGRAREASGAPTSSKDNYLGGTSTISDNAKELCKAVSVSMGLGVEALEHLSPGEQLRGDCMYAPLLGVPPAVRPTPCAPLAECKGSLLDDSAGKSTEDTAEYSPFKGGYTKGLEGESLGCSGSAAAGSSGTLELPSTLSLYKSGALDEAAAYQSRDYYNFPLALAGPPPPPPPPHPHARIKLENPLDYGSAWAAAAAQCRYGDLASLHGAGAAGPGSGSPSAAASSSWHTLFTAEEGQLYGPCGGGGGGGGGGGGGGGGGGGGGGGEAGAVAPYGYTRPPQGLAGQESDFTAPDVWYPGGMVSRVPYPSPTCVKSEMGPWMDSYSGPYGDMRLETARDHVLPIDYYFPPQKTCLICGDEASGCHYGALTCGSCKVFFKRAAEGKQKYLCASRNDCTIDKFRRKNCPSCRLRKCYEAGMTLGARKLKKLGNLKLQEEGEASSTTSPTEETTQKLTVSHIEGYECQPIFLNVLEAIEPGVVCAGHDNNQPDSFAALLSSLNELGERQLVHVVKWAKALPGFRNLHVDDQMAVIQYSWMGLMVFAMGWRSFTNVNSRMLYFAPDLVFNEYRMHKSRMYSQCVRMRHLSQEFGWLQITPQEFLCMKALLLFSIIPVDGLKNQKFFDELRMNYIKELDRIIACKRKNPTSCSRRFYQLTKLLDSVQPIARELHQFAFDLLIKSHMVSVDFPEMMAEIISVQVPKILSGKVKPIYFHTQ
Protocol: Cells were then harvested for western blot analysis using antibody to AR (4A), HSP90 (4B), Acetyl-Lysine (4C) or GAPDH (loading control). ImageJ software was used to determine the intensities of the bands relative to the vehicle control for each protein. The values were then divided by the values for GAPDH within the same samples.
Western Blot Analysis. Cells were washed once with phosphate buffered saline (PBS) and then lysed with RIPA buffer (150 mM NaCl, 1% Nonidet P-40, 0.5% sodium deoxycholate, 0.1% SDS, 50 mM Tris of pH 8.0) containing a protease inhibitor cocktail (Pierce, Thermo Fisher Scientific). The cell lysates were then incubated on ice for 40 minutes. Total protein concentrations were estimated using the Bradford Assay (Bio-Rad). Protein samples (10-40 ug) were heated at 95° C. for 5 minutes and resolved by electrophoresis on 8% polyacrylamide-SDS gels and electrophoretically transferred to PVDF membranes (Millipore, Billerica, Mass.). The membranes were then probed overnight at 4° C. with the appropriate primary antibody followed by the appropriate horseradish peroxidase-conjugated secondary antibody.

[2] = tested on: AR chromatin association at KLK3 ARE enhancer elements; assay: ChIP of AR at KLK3 enhancer in C4-2 cells; settings: compound 10 μM, R1881 1 nM or 10 nM, 2 h, FIG. 3C
Protocol: (3C) C4-2 cells plated in hormone-depleted medium were treated with either vehicle, R1881, or the indicated compound for 2 h. Cells were harvested and subjected to ChIP using AR antibody. Taqman probes targeting ARE enhancer elements associated with the KLK3 gene were used to quantify the immunoprecipitated chromatin.
Chromatin Immunoprecipitation (ChIP). […] The ChIP signals were measured by quantitative real time PCR analysis of the immunoprecipitated products.
As a target site for the ChIP assay, the well-established AR binding enhancer elements located 4 kb upstream of the transcription initiation site of the KLK3 gene was chosen.

## CC1(C)C(=O)N(c2ccc(C#N)c(C(F)(F)F)c2)C(=S)N1c1ccc(C(=O)NCCCCCCC(=O)NO)c(F)c1 [Compound 2-75, 4-(3-(4-cyano-3-(trifluoromethyl)phenyl)-5,5-dimethyl-4-oxo-2-thioxoimidazolidin-1-yl)-2-fluoro-N-(7-(hydroxyamino)-7-oxoheptyl)benzamide]
[1]
  AR protein level (degradation): more efficiently induced AR protein degradation
[2]
  chromatin association of AR (ChIP signal): basal ChIP signal

## CC1(C)C(=O)N(c2ccc(C#N)c(C(F)(F)F)c2)C(=S)N1c1ccc(/C=C/C(=O)NO)c(F)c1 [Compound 1005, (E)-3-(4-(3-(4-cyano-3-(trifluoromethyl)phenyl)-5,5-dimethyl-4-oxo-2-thioxoimidazolidin-1-yl)-2-fluorophenyl)-N-hydroxyacrylamide]
[1]
  AR protein level (degradation): more efficiently induced AR protein degradation

## CNC(=O)c1ccc(N2C(=S)N(c3ccc(C#N)c(C(F)(F)F)c3)C(=O)C2(C)C)cc1F [Enz, Enzalutamide, reference compound]
[2]
  chromatin association of AR (ChIP signal): basal ChIP signal
